Measurements as given in ChEMBL document CHEMBL4364241, “Developments in the anticancer activity of structurally modified curcumin: An up-to-date review” (Eur J Med Chem, 2019).

How the values were obtained:
[1] = tested on: HCT-116; test: Antitumor activity against human HCT116 cells after 72 hrs by FMCA method; type: functional, cell-based; details: HCT-116, 72 h, pooled result: one value given for 5 cell lines, strains, targets or settings
[2] = tested on: EA.hy 926; test: Cytotoxicity against human EAhy926 Cells after 72 hrs by MTT assay; type: functional, cell-based; details: EA.hy 926, 72 h
[3] = tested on: HepG2; test: Cytotoxicity against human HepG2 Cells after 72 hrs by MTT assay; type: functional, cell-based; details: HepG2, 72 h
[4] = tested on: Caco-2; test: Cytotoxicity against human Caco2 Cells after 72 hrs by MTT assay; type: functional, cell-based; details: Caco-2, 72 h
[5] = tested on: CHO-K1; test: Cytotoxicity against […] Cells after 72 hrs by MTT assay; type: functional, cell-based; details: Cricetulus griseus, CHO-K1, 72 h
[6] = tested on: HT-29; test: Cytotoxicity against human HT-29 Cells after 72 hrs by MTT assay; type: functional, cell-based; details: HT-29, 72 h
[7] = Anticancer activity against human LX2 cells after 72 hrs by MTT assay; type: functional, cell-based; details: LX-2, 72 h
[8] = tested on: SMMC-7721; test: Anticancer activity against human SMMC7721 cells after 72 hrs by MTT assay; type: functional, cell-based; details: SMMC-7721, 72 h
[9] = tested on: MDA-MB-231; test: Anticancer activity against human MDA-MB-231 cells after 72 hrs by MTT assay; type: functional, cell-based; details: MDA-MB-231, 72 h
[10] = tested on: HeLa; test: Cytotoxicity against human HeLa Cells; type: functional, cell-based
[11] = tested on: HCT-116; test: Cytotoxicity against human HCT116 Cells; type: functional, cell-based
[12] = tested on: HepG2; test: Cytotoxicity against human HepG2 Cells; type: functional, cell-based
[13] = tested on: AGS; test: Cytotoxicity against human AGS Cells; type: functional, cell-based
[14] = tested on: HepG2; test: Cytotoxicity against human HepG2 Cells by MTT/Trypan Blue Exclusion Assay; type: functional, cell-based
[15] = Cytotoxicity against mitoxantrone resistant […] cells expressing BCRP after 15 mins by fluorescence assay; type: functional, cell-based; details: Canis lupus familiaris, MDCK2, 0.25 h
[16] = tested on: HT-29; test: Cytotoxicity against human HT-29 Cells; type: functional, cell-based
[17] = tested on: A549; test: Cytotoxicity against human A549 Cells by MTT assay; type: functional, cell-based
[18] = tested on: HT-29; test: Cytotoxicity against human HT-29 cells by MTT assay; type: functional, cell-based
[19] = tested on: MIA PaCa-2; test: Cytotoxicity against human MIAPaCa2 cells by MTT assay; type: functional, cell-based
[20] = tested on: PANC-1; test: Cytotoxicity against human PANC1 cells by MTT assay; type: functional, cell-based
[21] = tested on: PC-3; test: Cytotoxicity against human PC3 cells by MTT assay; type: functional, cell-based
[22] = tested on: MCF7; test: Cytotoxicity against human MCF7 cells by MTT assay; type: functional, cell-based
[23] = tested on: NCI-H460; test: Cytotoxicity against human H460 cells by MTT assay; type: functional, cell-based
[24] = Cytotoxicity against human CCD-1059SK Cells after 48 hrs by MTS assay; type: functional
[25] = tested on: MCF7; test: Cytotoxicity against human MCF7 Cells after 48 hrs by MTS assay; type: functional, cell-based; details: MCF7, 48 h
[26] = tested on: HCT-116; test: Growth inhibition of human HCT116 cells relative to control; type: functional
[27] = tested on: KBM5; test: Growth inhibition of human KBM5 cells relative to control; type: functional
[28] = tested on: MCF7; test: Cytotoxicity against human MCF7 Cells after 48 hrs by neutral red dye-based assay; type: functional, cell-based; details: MCF7, 48 h
[29] = tested on: AGS; test: Cytotoxicity against human AGS Cells by MTT assay; type: functional, cell-based
[30] = tested on: A549; test: Cytotoxicity against human A549 Cells after 24 hrs by MTT assay; type: functional, cell-based; details: A549, 24 h
[31] = tested on: MDA-MB-231; test: Cytotoxicity against human MDA-MB-231 cells; type: functional, cell-based
[32] = tested on: MCF7; test: Cytotoxicity against human MCF7 cells; type: functional, cell-based
[33] = tested on: SW-620; test: Cytotoxicity against human SW620 Cells; type: functional, cell-based

Question: Which IC50 [1] does the source give for `CCCOc1ccc(/C=C2\CN(C(=S)c3ccccc3)C/C(=C\c3ccc(OCCC)c(OC)c3)C2=O)cc1OC` here?
Answer: Its IC50 is 0.207 µM.

Question: For `O=C(/C=C(O)/C=C/c1cccnc1)/C=C/c1cccnc1`, which IC50 [2] is on record?
Answer: Its IC50 is 7.9 µM.

Question: What about the IC50 [3] of the same compound?
Answer: The IC50 was 8.3 µM.

Question: And the IC50 [4]?
Answer: Its IC50 is 6.9 µM.

Question: What about the IC50 [5] of the same compound?
Answer: Its IC50 is 7.2 µM.

Question: What about the IC50 [6] of the same compound?
Answer: The IC50 was 8.2 µM.

Question: For `COc1cc(/C=C/C(=O)CC(=O)/C=C/c2ccc(OC(=O)C(N)CC[Se]C)c(OC)c2)ccc1O` (configuration not stated), which IC50 [7] is on record?
Answer: The IC50 was 0.62 µM.

Question: And the IC50 [8]?
Answer: The IC50 was 0.18 µM.

Question: What about the IC50 [3] of the same compound?
Answer: The IC50 was 0.31 µM.

Question: What about the IC50 [9] of the same compound?
Answer: Its IC50 is 0.52 µM.

Question: Which IC50 [10] does the source give for `COc1cc(/C=C/C(=O)CC(=O)/C=C/c2ccc(OC3O[C@H](CO)[C@@H](O)[C@H](O)[C@H]3O)c(OC)c2)ccc1O` (some centres not stated) here?
Answer: Its IC50 is 12.5 µM.

Question: What about the IC50 [11] of the same compound?
Answer: The IC50 was 5.4 µM.

Question: What about the IC50 [12] of the same compound?
Answer: Its IC50 is 18.6 µM.

Question: What about the IC50 [13] of the same compound?
Answer: The IC50 was 5.86 µM.

Question: Which IC50 [14] does the source give for `COc1cc(CCC2=NC(=S)N=C(CCc3ccc(O)c(OC)c3)C2=Cc2coc3c(OC)c4occc4c(OC)c3c2=O)ccc1O` here?
Answer: Its IC50 is 23 µM.

Question: With `O=C(/C=C(O)/C=C/c1ccc[nH]1)/C=C/c1ccc[nH]1` as the compound, how does the IC50 [2] read?
Answer: The IC50 was 8.3 µM.

Question: What about the IC50 [3] of the same compound?
Answer: Its IC50 is 8.2 µM.

Question: And the IC50 [4]?
Answer: The IC50 was 7.5 µM.

Question: And the IC50 [5]?
Answer: Its IC50 is 6.9 µM.

Question: And the IC50 [6]?
Answer: Its IC50 is 8.9 µM.

Question: Which IC50 [15] does the source give for `COc1cc(F)c(/C=C2\CNC/C(=C\c3cc(OC)c(OC)cc3F)C2=O)cc1OC` here?
Answer: Its IC50 is 5.2 µM.

Question: For `COc1cc(/C=C/C(=O)CC(=O)/C=C/c2ccc(OC3O[C@H](CO)[C@@H](O)[C@H](O)[C@H]3O)c(OC)c2)ccc1OC1O[C@H](CO)[C@@H](O)[C@H](O)[C@H]1O` (some centres not stated), which IC50 [16] is on record?
Answer: The IC50 was 41.6 µM.

Question: For `CCOC(OCC)c1ccc(CC2CN(C)CC(Cc3ccc(C(OCC)OCC)cc3)C2=NO)cc1` (configuration not stated), which IC50 [17] is on record?
Answer: Its IC50 is 0.3 µM.

Question: And the IC50 [18]?
Answer: Its IC50 is 0.4 µM.

Question: What about the IC50 [19] of the same compound?
Answer: The IC50 was 0.4 µM.

Question: And the IC50 [20]?
Answer: The IC50 was 0.4 µM.

Question: And the IC50 [21]?
Answer: Its IC50 is 0.2 µM.

Question: And the IC50 [22]?
Answer: The IC50 was 0.2 µM.

Question: And the IC50 [23]?
Answer: Its IC50 is 0.2 µM.

Question: Which results are given for `COc1cc(/C=C/C(=O)N/N=C/c2ccc(O)c(OC)c2)ccc1O`?
Answer: IC50 [24]: 74.6 µM; IC50 [25]: 43 µM

Question: Which “growth inhibition (GI)” value [26] does the source give for `COc1cc(/C=C/C(=O)/C=C/c2ccc(OCC(=O)Nc3ccccc3)c(OC)c2)ccc1OCC(=O)Nc1ccccc1` here?
Answer: Its value is 60.13%.

Question: What about the “growth inhibition (GI)” value [27] of the same compound?
Answer: The value was 86.76%.

Question: What does the source list for `COc1ccc(NC(=O)COc2ccc(/C=C/C(=O)/C=C/c3ccc(OCC(=O)Nc4ccc(OC)cc4)c(OC)c3)cc2OC)cc1`?
Answer: growth inhibition (GI) [26]: 57.96%; growth inhibition (GI) [27]: 83.63%

Question: Which IC50 [28] does the source give for `COc1cc(/C=C/C2=NN(c3nc(/N=C4\CC[C@H]5[C@@H]6CC[C@H]7C[C@@H](OC(C)=O)CC[C@]7(C)[C@H]6CC[C@]45C)cc(=O)[nH]3)C(/C=C/c3ccc(O)c(OC)c3)C2)ccc1O` (some centres not stated) here?
Answer: Its IC50 is 18 µM.

Question: With `CCCC(=O)Oc1ccc(/C=C2\CN(C(=O)c3ccccc3)C/C(=C\c3ccc(OC(=O)CCC)c(OCC)c3)C2=O)cc1OCC` as the compound, how does the IC50 [1] read?
Answer: Its IC50 is 0.19 µM.

Question: What does the source list for `COc1cc(/C=C/C(=O)/C(CNc2ccc(S(N)(=O)=O)cc2)=C(O)/C=C/c2ccc(O)c(OC)c2)ccc1O`?
Answer: IC50 [17]: 1.29 µM; IC50 [29]: 10.2 µM

Question: With `CCCC(=O)Oc1ccc(/C=C2\CN(C(C)=O)C/C(=C\c3ccc(OC(=O)CCC)c(OC)c3)C2=O)cc1OC` as the compound, how does the IC50 [1] read?
Answer: Its IC50 is 0.246 µM.

Question: Which IC50 [30] does the source give for `O=C(/C=C/c1ccccc1C(F)(F)F)/C=C/c1ccccc1C(F)(F)F` here?
Answer: The IC50 was 3.1 µM.

Question: Which results are given for `COc1ccc(OC)c(/C=C/C(=O)/C=C/c2cc(OC)ccc2OC)c1`?
Answer: IC50 [10]: 14 µM; IC50 [31]: 1.52 µM; IC50 [32]: 3.02 µM

Question: For `O=C(/C=C(\O)c1ccccc1)c1ccccc1O` [2',beta-DIHYDROXYCHALCONE], which IC50 [16] is on record?
Answer: The IC50 was 7.5 µM.

Question: What about the IC50 [33] of the same compound?
Answer: Its IC50 is 14.5 µM.

Question: With `CC/C(=C(\c1ccccc1)c1ccc(OCCN(C)C)cc1)c1ccccc1` [TAMOXIFEN] as the compound, how does the IC50 [28] read?
Answer: The IC50 was 4 µM.
